Data published in patent publication US20150126368A1, “METHOD OF PROVIDING PLANT WITH STRESS RESISTANCE” (Nippon Soda Co., Ltd., priority 2012, published 2015).
Read-outs that look alike come from different tables or passages of the source.

Experiments:
Assay type in all cases: in vivo
[1] = test system: Cucumber (breed: Sagamihanjirohushinari); assay: Evaluation test for relief effects of salt injury on cucumber; conditions: 0.1% aqueous sodium chloride from 2 days, raw weight 11 days after spray
Description: Cucumber (breed: Sagamihanjirohushinari, 2 reprications) hydroponically grown up to the two leaf stage in a greenhouse was prepared.
(§1) A water dispersible granule of 30% ascorbic acid palmitate and pyraclostrobin adjusted to 40% with N,N-dimethylformamide were diluted with tap water to a predetermined concentration, and the diluted solution was sprayed over the whole nursery plants in a sufficient amount. After air dried, they were cultivated with normal irrigation in a greenhouse. Then, the irrigation conditions were changed to 0.1% aqueous sodium chloride solution in 2 cm depth from 2 days after the spraying, and cultivated up to 11 days after the spray treatment. Then the raw weights of an aerial part and a root part were each measured. From this, injury relief percentages were computed by the following formula.
(§2) Salt injury relief percentage=((raw weight of each treatment region)−(raw weight of untreated region))/(raw weight of untreated region)×100

[2] = test system: Eggplant (breed: Senryo 2 gou); assay: Evaluation test for relief effects of low temperature injury on eggplant; conditions: 13° C. daylight/8° C. dark, 15 days after spray
Description: Eggplant (breed: Senryo 2 gou, 3 reprications) grown up to the 4 to 6 leaf stage in a greenhouse was prepared.
A water dispersible granule of 30% ascorbyl palmitate and pyraclostrobin dissolved to 40% with N,N-dimethylformamide were diluted with tap water to a concentration described in Table 6, and the diluted solution was sprayed over the whole nursery plants in a sufficient amount. After air dried, they were allowed to grow for 1 day under conditions of 16 hours under a daylight condition at 18° C. and 8 hours under a dark condition at 13° C., and then allowed to grow under conditions of 16 hours under a daylight condition at 13° C. and 8 hours under a dark condition at 8° C. A degree of disorder was investigated at the elapsed time of 15 days after the spray treatment.
Disorders were evaluated by 4 levels of disorder indices of 0 (no color change), 1 (discolored up to ¼ of the whole), 2 (discolored up to ½ of the whole), 3 (discolored at ½ or more of the whole) with reference to the area of a discolored portion in an expanded leaf after treatment.
Injury relief percentage=((disorder index of untreated region)−(disorder index of each treated region))/(disorder index of untreated region)×100

[3] = test system: Cucumber (breed: Sagamihanjirohushinari); assay: Evaluation test for relief effects of acidity problem on cucumber; conditions: hydroponic medium pH 4 from 2 days, leaf stage 17 days after spray
Description: Cucumber (breed: Sagamihanjirohushinari, 2 reprications) hydroponically grown up to the two leaf stage in a 100 ml flask was prepared.
A water dispersible granule of 30% ascorbic acid palmitate and pyraclostrobin adjusted to 40% with N,N-dimethylformamide were diluted with tap water to a predetermined concentration, and the diluted solution was sprayed over the whole nursery plants in a sufficient amount. The water culture medium was adjusted to pH 4 with 1 N hydrochloric acid at the elapsed time of 2 days after the spray treatment, and the above cucumber was continuously allowed to grow hydroponically. Leaf stage of the cucumber was investigated 17 days after the spray treatment. From this, disorder relief percentages were computed by the following formula.
Acidity problem relief percentage=((leaf stage of each treatment region)−(leaf stage of untreated region))/(leaf stage of untreated region)×100

Soybean (breed: Enrei) [4] = assay: Evaluation test for relief effects of acidity problem on soybean; conditions: hydroponic medium pH 4 from 2 days, disorder index 11 days after spray
Description: Soybean (breed: Enrei, 2 reprications) hydroponically grown up to the two leaf stage in a 100 ml flask was prepared.
A water dispersible granule of 30% ascorbyl palmitate and pyraclostrobin dissolved to 40% with N,N-dimethylformamide were diluted with tap water to a predetermined concentration, and the diluted solution was sprayed over the whole nursery plants in a sufficient amount. The water culture medium was adjusted to pH 4 with 1 N hydrochloric acid at the elapsed time of 2 days after the spray treatment, and the above soybean was continuously allowed to grow hydroponically. Disorder in the soybean was investigated at the elapsed time of 11 days after the spray treatment.
For disorder, a degree of necrosis was evaluated by 11 levels of disorder indices from 0 (no necrosis) to 10 (withering to death). From this, problem relief percentages were computed by the following formula.
Acidity problem relief percentage=((disorder index of untreated region)−(disorder index of each treated region))/(disorder index of untreated region)×100

Soybean (breed: Enrei) [5] = assay: Evaluation test for relief effects of flood injury on soybean; conditions: flood from 2 days, raw weight 11 days after spray
Description: Soybean (breed: Enrei, 2 reprications) grown up to the two leaf stage in a greenhouse was prepared.
A water dispersible granule of 30% ascorbyl palmitate and pyraclostrobin adjusted to 40% with N,N-dimethylformamide were diluted with tap water to a predetermined concentration, and the diluted solution was sprayed in a sufficient amount. They were subjected to flood conditions up to immediately below the cotyledon from 2 days after the spray treatment, and the raw weights of an above ground part and a root part of soybean were each measured at the elapsed time of 11 days after the spray treatment. From this, injury relief percentages were computed by the following formula.
Flood injury relief percentage=((raw weight of each treatment region)−(raw weight of untreated region))/(raw weight of untreated region)×100

Pyricularia oryzae = conditions: 11 days after inoculation
[6] = test system: Cucumber nursery plants (breed: Sagamihanjiro); assay: Evaluation test for relief effects of low temperature injury on cucumber; conditions: spray, 2 days 25° C., then 9 days 10° C. daylight/7° C. dark, vs solvent only
Description: N,N-dimethylformamide based solutions were prepared according to the formulations shown in Tables 5 to give chemical solutions for the tests.
Cucumber nursery plants (breed: Sagamihanjiro) grown up to the 1.5 leaf stage in a greenhouse was prepared.
The above chemical solution was sprayed to the stem and leaf parts of the above cucumber nursery plants in a sufficient amount, and then air dried. They were allowed to grow at 25° C. for 2 days under conditions of 16 hours under a daylight condition and 8 hours under a dark condition. Then, they were allowed to grow for 9 days under conditions of 16 hours under a daylight condition at 10° C. and 8 hours under a dark condition at 7° C.
Disorders were evaluated by 11 levels of disorder indices from 0 (no disorders) to 10 (withering to death).
Low temperature injury relief percentages as compared with a region treated with solvent DMF only (Chemical solution 3) were computed by the following formula.
Low temperature injury relief percentage=((disorder index of region treated with solvent only)−(disorder index of each treated region))/(disorder index of region treated with solvent only)×100

Soybean (breed: Enrei) [7] = assay: Evaluation test for relief effects of salt injury on soybean; conditions: 0.1% aqueous sodium chloride from 2 days, raw weight 11 days after spray
Description: Soybean (breed: Enrei, 2 reprications) hydroponically grown up to the two leaf stage in a greenhouse was prepared.
as §1, §2

[8] = Pyraclostrobin 5 ppm spray on rice (Koshihikari) one day before inoculation
[9] = ascorbyl palmitate 1000 ppm spray
[10] = ascorbyl palmitate 50 ppm spray on rice (Koshihikari) one day before inoculation

`COC(=O)N(OC)c1ccccc1COc1ccn(-c2ccc(Cl)cc2)n1` [Pyraclostrobin, reference compound] was tested, and the “relief percents of salt injury in aerial part(%)” value ([1]; Pyraclostrobin 50 ppm spray) was 45.6%, the “relief percents of salt injury in root(%)” value ([1]; Pyraclostrobin 50 ppm spray) was 20.0% and the “relief percents of low-temperature injury(%)” value ([2]; Pyraclostrobin 50 ppm spray) was 13.0%. For the same molecule, the “relief percents of acidity problem(%)” value ([3]; Pyraclostrobin 50 ppm spray) was 15.6%, the “relief percents of acidity problem(%)” value (Soybean (breed: Enrei) [4]; Pyraclostrobin 50 ppm spray) was 12.5% and the “relief percents of flood injury in aerial part(%)” value (Soybean (breed: Enrei) [5]; Pyraclostrobin 50 ppm spray) was 0.0%. The “relief percents of flood injury in root(%)” value (Soybean (breed: Enrei) [5]; Pyraclostrobin 50 ppm spray) was 3.2%, the “Number of lesion spots” value (Pyricularia oryzae; [8]) was 10 and the “Preventive value(%)” value (Pyricularia oryzae; [8]) was 70%. For the same molecule, the “relief percents of low-temperature injury(%)” value ([6]; Pyraclostrobin 40 ppm in DMF) was 19%, the “relief percents of salt injury in aerial part(%)” value (Soybean (breed: Enrei) [7]; Pyraclostrobin 50 ppm spray) was 3.2% and the “relief percents of salt injury in root(%)” value (Soybean (breed: Enrei) [7]; Pyraclostrobin 50 ppm spray) was 2.5%.
`CCCCCCCCCCCCCCCC(=O)OC[C@H](O)[C@H]1OC(=O)C(O)=C1O` [ascorbyl palmitate] was tested, and the “relief percents of salt injury in aerial part(%)” value [1, 9] was 8.8%, the “relief percents of salt injury in root(%)” value [1, 9] was 16.0% and the “relief percents of low-temperature injury(%)” value [2, 9] was 13.0%. The “relief percents of acidity problem(%)” value [3, 9] was 15.6%, the “relief percents of acidity problem(%)” value (Soybean (breed: Enrei) [4]; [9]) was 43.8% and the “relief percents of flood injury in aerial part(%)” value (Soybean (breed: Enrei) [5]; [9]) was 2.8%. The “relief percents of flood injury in root(%)” value (Soybean (breed: Enrei) [5]; [9]) was 20.4%, the “Number of lesion spots” value (Pyricularia oryzae; [10]) was 30 and the “Preventive value(%)” value (Pyricularia oryzae; [10]) was 9%. The “relief percents of low-temperature injury(%)” value ([6]; ascorbyl palmitate 800 ppm in DMF) was 25%, the “relief percents of salt injury in aerial part(%)” value (Soybean (breed: Enrei) [7]; [9]) was 20.4% and the “relief percents of salt injury in root(%)” value (Soybean (breed: Enrei) [7]; [9]) was 22.2%.
